Structures are written as SMILES.

From patent EP2951180B1, “2,6,7,8 SUBSTITUTED PURINES AS HDM2 INHIBITORS” (Merck Sharp & Dohme Corp., priority 2013, dated 2014) come the findings set out here.

This test has as its target T1, HDM2 (Homo sapiens, UniProt Q00987).
T1 construct: Thioredoxin (N); made in house; host or cells: E. coli strain BL21(DE3)Rosetta
The test is described as follows: FRET assay (HDM2 inhibition; method not described in this part). Type of test: binding.

T1 sequence (Q00987 17-125): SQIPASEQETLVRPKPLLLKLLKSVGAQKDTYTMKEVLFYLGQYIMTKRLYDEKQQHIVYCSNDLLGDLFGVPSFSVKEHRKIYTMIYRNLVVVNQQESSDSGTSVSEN

`CC(C)c1ccnc(-c2nc3nc(C(=O)O)nc(N(C)[C@H](C)C4CCC4)c3n2Cc2ccc(C(F)(F)F)c(F)c2)c1` [Example 1.13, (R)-6-((1-cyclobutylethyl)(methyl)amino)-7-(3-fluoro-4-(trifluoromethyl)benzyl)-8-(4-isopropylpyridin-2-yl)-7H-purine-2-carboxylic acid]: inhibition (Table 1) was half-maximal at 158 nM (IC50).

Regarding `Cc1cccc(-c2nc3nc(C(=O)O)nc(N[C@H](C)C4CCC4)c3n2Cc2ccc(C(F)(F)F)cc2Cl)c1` [Example 5.12, 7-[2-chloro-4-(trifluoromethyl)benzyl]-6-{[(1R)-1-cyclobutylethyl]amino}-8-(3-methylphenyl)-7H-purine-2-carboxylic acid], inhibition (Table 5) was half-maximal at 94.6 nM (IC50).

As to `C[C@@H](Nc1nc(C(=O)O)nc2nc(-c3ccc(-c4ccccc4)c(F)c3)n(Cc3ccc(C(F)(F)F)cc3)c12)C1CCC1` [Example 1.112, 6-{[(1R)-1-cyclobutylethyl]amino}-8-(2-fluorobiphenyl-4-yl)-7-[4-(trifluoromethyl)benzyl]-7H-purine-2-carboxylic acid], under “Table 1”, half-maximal inhibition (IC50) required 344 nM.

Regarding `COc1ccc(-c2nc3nc(C(=O)O)nc(N[C@H](C)C4CCC4)c3n2Cc2ccc(C(F)(F)F)cc2)cc1F` [Example 1.104, 6-{[(1R)-1-cyclobutylethyl]amino}-8-(3-fluoro-4-methoxyphenyl)-7-[4-(trifluoromethyl)benzyl]-7H-purine-2-carboxylic acid], the half-maximal inhibitory concentration (IC50) (in general, the midpoint of a concentration-inhibition curve) (Table 1) was 17.4 nM.

In the case of `C[C@@H](Nc1nc(C(=O)O)nc2nc(-c3cc(C4CCC4)ccn3)n(Cc3ccc(C(F)(F)F)c(F)c3)c12)C1CCC1` [Example 1.78, 6-{[(1R)-1-cyclobutylethyl]amino}-8-(4-cyclobutylpyridin-2-yl)-7-[3-fluoro-4-(trifluoromethyl)benzyl]-7H-purine-2-carboxylic acid], half-maximal inhibition (Table 1) (IC50) required 9.25 nM.

Regarding `CCc1ccnc(-c2nc3nc(C(=O)O)nc(N[C@H](C)C4CCC4)c3n2Cc2ccc(C(F)(F)F)c(F)c2)c1` [Example 1.79, 6-{[(1R)-1-cyclobutylethyl]amino}-8-(4-ethylpyridin-2-yl)-7-[3-fluoro-4-(trifluoromethyl)benzyl]-7H-purine-2-carboxylic acid], the IC50 (Table 1) came out at 10.2 nM.

For the setting “Table 1”, `Cc1ccn(-c2ccnc(-c3nc4nc(C(=O)O)nc(N[C@H](C)C5CCC5)c4n3Cc3ccc(C(F)(F)F)cc3)c2)n1` [Example 1.48, 6-{[(1R)-1-cyclobutylethyl]amino}-8-[4-(3-methyl-1H-pyrazol-1-yl)pyridin-2-yl]-7-[4-(trifluoromethyl)benzyl]-7H-purine-2-carboxylic acid] registered an IC50 of 2260 nM.

On to `C[C@@H](Nc1nc(C(=O)O)nc2nc(-c3ccccc3)n(Cc3ccc(C(F)(F)F)cc3)c12)C1CC1` [Example 1.96, 6-{[(1R)-1-cyclopropylethyl]amino} -8-phenyl-7-[4-(trifluoromethyl)benzyl]-7H-purine-2-carboxylic acid], for which, under “Table 1”, the half-maximal inhibitory concentration (IC50) was 371 nM.

With `C[C@@H](Nc1nc(C(=O)O)nc2nc(-c3ncccc3C(F)(F)F)n(Cc3ccc(C(F)(F)F)cc3)c12)C1CCC1` [Example 1.135, 6-{[(1R)-1-cyclobutylethyl]amino}-7-[4-(trifluoromethyl)benzyl]-8-[3-(trifluoromethyl)pyridin-2-yl]-7H-purine-2-carboxylic acid], where the note is “Table 1”, the IC50 stood at 47.9 nM.

For the molecule `C[C@@H](Nc1nc(C(=O)O)nc2nc(-c3nccc4ccccc34)n(Cc3ccc(C(F)(F)F)cc3)c12)C1CCC1` [Example 1.73, 6-{[(1R)-1-cyclobutylethyl]amino}-8-isoquinolin-1-yl-7-[4-(trifluoromethyl)benzyl]-7H-purine-2-carboxylic acid], 27.3 nM corresponded to half-maximal inhibition (Table 1) (IC50).

Turning to `C[C@@H](Nc1nc(C(=O)O)nc2nc(C3CC3)n(Cc3ccc(Cl)cc3)c12)C1CC1` [Example 2.42, 7-(4-chlorobenzyl)-8-cyclopropyl-6-{[(1R)-1-cyclopropylethyl]amino}-7H-purine-2-carboxylic acid], under “Table 2”, half-maximal inhibition (IC50) required 265 nM.

With `CCc1ccnc(-c2nc3nc(C(=O)O)nc(N[C@H](C)C4CCC4)c3n2Cc2ccc(C(F)(F)F)cc2)c1` [Example 1.69, 6-{[(1R)-1-cyclobutylethyl]amino}-8-(4-ethylpyridin-2-yl)-7-[4-(trifluoromethyl)benzyl]-7H-purine-2-carboxylic acid], the midpoint of inhibition (Table 1), the IC50, lay at 42.7 nM.

In turn, `Cc1ccc(OCCC(=O)O)c(-c2nc3nc(C(=O)O)nc(N[C@H](C)C4CC4)c3n2Cc2ccc(Cl)cc2)c1` [Example 4.11, (R)-8-(2-(2-carboxyethoxy)-5-methylphenyl)-7-(4-chlorobenzyl)-6-((1-cyclopropylethyl)amino)-7H-purine-2-carboxylic acid] displayed an IC50 (Table 4) of 312 nM.

Turning to `COc1cc(-c2nc3nc(C(=O)O)nc(N[C@H](C)C4CC4)c3n2Cc2ccc(C(F)(F)F)cc2)ccn1` [Example 2.71, 6-{[(1R)-1-cyclopropylethyl]amino}-8-(2-methoxypyridin-4-yl)-7-[4-(trifluoromethyl)benzyl]-7H-purine-2-carboxylic acid], 589 nM corresponded to half-maximal inhibition (Table 2) (IC50).

For the molecule `C[C@@H](Nc1nc(C(=O)O)nc2nc(-c3ccc(C4CCCCC4)cc3)n(Cc3ccc(C(F)(F)F)cc3)c12)C1CCC1` [Example 1.110, 6-{[(1R)-1-cyclobutylethyl]amino}-8-(4-cyclohexylphenyl)-7-[4-(trifluoromethyl)benzyl]-7H-purine-2-carboxylic acid], the IC50 (Table 1) was found to be 3700 nM.

Turning to `COCCOc1ccc(C)cc1-c1nc2nc(C(=O)O)nc(N[C@H](C)C3CC3)c2n1Cc1ccc(Cl)cc1` [Example 4.9, (R)-7-(4-chlorobenzyl)-6-((1-cyclopropylethyl)amino)-8-(2-(2-methoxyethoxy)-5-methylphenyl)-7H-purine-2-carboxylic acid], under “Table 4”, 27.3 nM corresponded to half-maximal inhibition (IC50).

`COc1ccc(C(C)C)cc1-c1nc2nc(C(=O)O)nc(N[C@H](C)C3CCC3)c2n1Cc1ccc(C(F)(F)F)cc1` [Example 1.41, 6-{[(1R)-1-cyclobutylethyl]amino}-8-[2-methoxy-5-(1-methylethyl)phenyl]-7-[4-(trifluoromethyl)benzyl]-7H-purine-2-carboxylic acid] showed a 50% inhibitory concentration (IC50) (Table 1) of 27.5 nM.

Regarding `CCOc1ccc(C(C)C)cc1-c1nc2nc(C(=O)O)nc(N[C@H](C)C3CCC3)c2n1Cc1ccc(C(F)(F)F)cc1` [Example 1.12, (R)-6-((1-cyclobutylethyl)amino)-8-(2-ethoxy-5-isopropylphenyl)-7-(4-(trifluoromethyl)benzyl)-7H-purine-2-carboxylic acid], the IC50 (Table 1) was 29.4 nM.

As for `Cc1cnc(-c2nc3nc(C(=O)O)nc(N[C@H](C)C4CCC4)c3n2Cc2ccc(C(F)(F)F)c(F)c2)cc1C(C)C` [Example 1.92, 6-{[(1R)-1-cyclobutylethyl]amino}-7-[3-fluoro-4-(trifluoromethyl)benzyl]-8-[5-methyl-4-(1-methylethyl)pyridin-2-yl]-7H-purine-2-carboxylic acid], the IC50 (Table 1) was found to be 15.9 nM.

As for `CCc1ccc(OC)cc1-c1nc2nc(C(=O)O)nc(N[C@H](C)C3CCC3)c2n1Cc1ccc(C(F)(F)F)cc1` [Example 2.80, 6-{[(1R)-1-cyclobutylethyl]amino} -8-(2-ethyl-5-methoxyphenyl)-7-[4-(trifluoromethyl)benzyl]-7H-purine-2-carboxylic acid], the IC50 (Table 2) was determined as 11.1 nM.

`CCc1ccccc1-c1nc2nc(C(=O)O)nc(N[C@H](C)C3CCC3)c2n1Cc1ccc(C(F)(F)F)cc1` [Example 2.81, 6-{[(1R)-1-cyclobutylethyl]amino} -8-(2-ethylphenyl)-7-[4-(trifluoromethyl)benzyl] - 7H-purine-2-carboxylic acid] yielded an IC50 (Table 2) of 18 nM.

`C[C@@H](Nc1nc(C(=O)O)nc2nc(-c3cccc(N(C)C)c3)n(Cc3ccc(C(F)(F)F)cc3)c12)C1CC1` [Example 2.29, 6-{[(1R)-1-cyclopropylethyl]amino}-8-[3-(dimethylamino)phenyl]-7-[4-(trifluoromethyl)benzyl]-7H-purine-2-carboxylic acid]: the half-maximal inhibitory concentration (IC50) (Table 2) was 105 nM.

As for `COCCN(CCCOc1ccc(C)cc1-c1nc2nc(C(=O)O)nc(N[C@H](C)C3CC3)c2n1Cc1ccc(Cl)cc1)CCOC` [Example 4.15, (R)-8-(2-(3-(bis(2-methoxyethyl)amino)propoxy)-5-methylphenyl)-7-(4-chlorobenzyl)-6-((1-cyclopropylethyl)amino)-7H-purine-2-carboxylic acid], the IC50 (Table 4) is 667 nM.

With `Cc1cnc(-c2nc3nc(C(=O)O)nc(N[C@H](C)C4CCC4)c3n2Cc2ccc(C(F)(F)F)cc2)s1` [Example 3.7, 6-{[(1R)-1-cyclobutylethyl]amino}-8-(5-methyl-1,3-thiazol-2-yl)-7-[4-(trifluoromethyl)benzyl] -7H-purine-2-carboxylic acid], under “Table 3”, half-maximal inhibition (IC50) required 42 nM.

As to `Cc1cccc(-c2nc3nc(C(=O)O)nc(N[C@H](C)C4CC4)c3n2Cc2ccc(OC(F)(F)F)cc2)c1` [Example 5.8, 6-{[(1R)-1-cyclopropylethyl]amino}-8-(3-methylphenyl)-7-[4-(trifluoromethoxy)benzyl]-7H-purine-2-carboxylic acid], it took 149 nM to reach half-maximal inhibition (Table 5) (IC50).

For `CC(C)c1csc(-c2nc3nc(C(=O)O)nc(N[C@H](C)C4CCC4)c3n2Cc2ccc(C(F)(F)F)cc2)n1` [Example 3.6, 6-{[(1R)-1-cyclobutylethyl]amino}-8-[4-(1-methylethyl)-1,3-thiazol-2-yl]-7-[4-(trifluoromethyl)benzyl] -7H-purine-2-carboxylic acid], where the note is “Table 3”, 312 nM corresponded to half-maximal inhibition (IC50).

Take `C[C@@H](Nc1nc(C(=O)O)nc2nc(-c3ccc(S(C)(=O)=O)cc3)n(Cc3ccc(C(F)(F)F)cc3)c12)C1CCC1` [Example 1.24, 6-{[(1R)-1-cyclobutylethyl]amino}-8-[4-(methylsulfonyl)phenyl]-7-[4-(trifluoromethyl)benzyl] - 7H-purine-2-carboxylic acid]: for the setting “Table 1”, the concentration for half-maximal inhibition (IC50) came out at 112 nM.

Regarding `Cc1ccc(C)c(-c2nc3nc(C(=O)O)nc(N[C@H](C)C4CCC4)c3n2Cc2ccc(C(F)(F)F)cc2)n1` [Example 1.21, 6-{[(1R)-1-cyclobutylethyl]amino}-8-(3,6-dimethylpyridin-2-yl)-7-[4-(trifluoromethyl)benzyl]-7H-purine-2-carboxylic acid], for the setting “Table 1”, the IC50 worked out at 27 nM.
